Reference: ChEMBL document CHEMBL3301472, “MMV Malaria Box HIV and cytotoxicity screening”

How the values were obtained:
Type in all cases: toxicity, cell-based
[1] = MMV: MTT Cytotoxicity Assay Day 7 pi of Assay #6 (compound washed out Day 1 pi), U87-CD4-CCR5 cells, % cell death @ 5mM compound; conditions: human, u87-cd4-ccr5, 5000 µM
[2] = MMV: MTT Cytotoxicity Assay Day 7 pi of Assay #7 (compound washed out Day 1 pi), U87-CD4-CXCR4 cells, % cell death @ 5mM compound; conditions: human, u87-cd4-cxcr4, 5000 µM
[3] = MMV: MTT Cytotoxicity Assay Day 7 pi of Assay #11 (NO washout), U87-CD4-CXCR4 cells, % cell death @ 5mM compound; conditions: human, u87-cd4-cxcr4, 5000 µM
[4] = MMV: MTT Cytotoxicity Assay Day 3 pi, U87-CD4-CXCR4 cells, % cell death @ 5mM compound; conditions: human, u87-cd4-cxcr4, 5000 µM
[5] = MMV: MTT Cytotoxicity Assay Day 3 pi, U87-CD4-CCR5 cells, % cell death @ 5mM compound; conditions: human, u87-cd4-ccr5, 5000 µM
[6] = MMV: MTT Cytotoxicity Assay Day 7 pi of Assay #10 (NO washout), U87-CD4-CCR5 cells, % cell death @ 5mM compound; conditions: human, u87-cd4-ccr5, 5000 µM

## COc1ccc(C2c3ccc4ccccc4c3Oc3ncn(CCCN(C)C)c(=N)c32)cc1 (centres undefined)
[1]
  % Cell Death: -31
[2]
  % Cell Death: -12
[3]
  % Cell Death: -61
[4]
  % Cell Death: 39
[5]
  % Cell Death: 15
[6]
  % Cell Death: -3

## FC(F)(F)c1cccc(CNC2CCN(CCc3ccccc3)CC2)c1
[1]
  % Cell Death: 30
[2]
  % Cell Death: -15
[3]
  % Cell Death: 24
[4]
  % Cell Death: 31
[5]
  % Cell Death: -16
[6]
  % Cell Death: -16

## O=C(NNc1cc(N2CCCC2)nc(N2CCCC2)n1)c1ccccc1
[1]
  % Cell Death: 15
[2]
  % Cell Death: 53
[3]
  % Cell Death: 8
[4]
  % Cell Death: 29
[5]
  % Cell Death: 61
[6]
  % Cell Death: 27

## CN(C)c1ccc(N=Cc2ccc(N3CCOCC3)cc2)cc1
[1]
  % Cell Death: 92
[2]
  % Cell Death: 97
[3]
  % Cell Death: 109
[4]
  % Cell Death: 100
[5]
  % Cell Death: 108
[6]
  % Cell Death: 135

## COc1cccc(C(=O)Nc2ccc(-c3nc4ccccc4[nH]3)cc2)c1
[1]
  % Cell Death: 3
[2]
  % Cell Death: 7
[3]
  % Cell Death: 35
[4]
  % Cell Death: 39
[5]
  % Cell Death: 27
[6]
  % Cell Death: 34

## Cl.N=c1n(CCN2CCCCC2)c2ccccc2n1CC(O)c1cccc(Br)c1 (centres undefined)
[1]
  % Cell Death: 10
[2]
  % Cell Death: -20
[3]
  % Cell Death: 8
[4]
  % Cell Death: 27
[5]
  % Cell Death: 2
[6]
  % Cell Death: 11

## Cl.Cn1c(=O)n(C)c2cc(CNCCNc3ccnc4cc(Cl)ccc34)ccc21
[1]
  % Cell Death: 34
[2]
  % Cell Death: 31
[3]
  % Cell Death: 45
[4]
  % Cell Death: 65
[5]
  % Cell Death: 46
[6]
  % Cell Death: 23

## Oc1ccc(Cl)cc1CNc1nc2ccccc2[nH]1
[1]
  % Cell Death: 10
[2]
  % Cell Death: -38
[3]
  % Cell Death: 24
[4]
  % Cell Death: 10
[5]
  % Cell Death: -44
[6]
  % Cell Death: -8

## Cc1[nH]c(-c2ccc(F)cc2)cc1C(=O)NC1CCN(Cc2ccccc2)CC1
[1]
  % Cell Death: 52
[2]
  % Cell Death: 6
[3]
  % Cell Death: 29
[4]
  % Cell Death: 41
[5]
  % Cell Death: 65
[6]
  % Cell Death: 44

## Cc1ccc(Nc2nc(-c3ccccn3)cs2)cc1
[1]
  % Cell Death: 20
[2]
  % Cell Death: -17
[3]
  % Cell Death: 12
[4]
  % Cell Death: 29
[5]
  % Cell Death: 24
[6]
  % Cell Death: 21

## CCOC(=O)C1(Cc2ccccc2)CCN(Cc2cccc(OC)c2O)CC1
[1]
  % Cell Death: 15
[2]
  % Cell Death: -16
[3]
  % Cell Death: -36
[4]
  % Cell Death: 29
[5]
  % Cell Death: 0
[6]
  % Cell Death: 21

## CCN1CCN(c2c(C(=O)c3ccccc3)cnc3cc(OC)c(OC)cc23)CC1
[1]
  % Cell Death: 23
[2]
  % Cell Death: -11
[3]
  % Cell Death: 99
[4]
  % Cell Death: 85
[5]
  % Cell Death: 43
[6]
  % Cell Death: 47

## Cc1cc(Nc2ccc3ccccc3c2)n2ncnc2n1
[1]
  % Cell Death: 12
[2]
  % Cell Death: -16
[3]
  % Cell Death: -43
[4]
  % Cell Death: 38
[5]
  % Cell Death: 39
[6]
  % Cell Death: -3

## COc1ccc(C2=C(c3ccc(OC)cc3)C3(c4ccccc4)C(=O)C2(c2ccccc2)C2C(=O)N(c4ccc(C)cc4)C(=O)C23)cc1 (centres undefined)
[1]
  % Cell Death: -10
[2]
  % Cell Death: 13
[3]
  % Cell Death: -6
[4]
  % Cell Death: 28
[5]
  % Cell Death: -42
[6]
  % Cell Death: 41

## O=C(Nc1ccc(N2CCN(Cc3ccccc3)CC2)cc1)c1cccs1.O=C(O)C(F)(F)F
[1]
  % Cell Death: 4
[2]
  % Cell Death: -26
[3]
  % Cell Death: 28
[4]
  % Cell Death: 55
[5]
  % Cell Death: -2
[6]
  % Cell Death: 124

## c1ccc(Cn2c(N=Nc3c(Nc4ccccc4)ccc4ccccc34)nc3ccccc32)cc1
[1]
  % Cell Death: 95
[2]
  % Cell Death: 99
[3]
  % Cell Death: 101
[4]
  % Cell Death: 97
[5]
  % Cell Death: 92
[6]
  % Cell Death: 83

## C[n+]1c2ccccc2nc2ccc(NCCO)cc21
[1]
  % Cell Death: 29
[2]
  % Cell Death: -30
[3]
  % Cell Death: 16
[4]
  % Cell Death: 11
[5]
  % Cell Death: -33
[6]
  % Cell Death: 49

## O=C(NC1CCN(Cc2ccccc2)CC1)c1cc(C(=O)NC2CCN(Cc3ccccc3)CC2)cc(C(=O)NC2CCN(Cc3ccccc3)CC2)c1
[1]
  % Cell Death: 14
[2]
  % Cell Death: 72
[3]
  % Cell Death: 71
[4]
  % Cell Death: 60
[5]
  % Cell Death: 12
[6]
  % Cell Death: 48

## CCOc1ccc(CN2CCN(CC(O)COc3ccc(OCC(O)CN4CCN(Cc5ccc(OCC)cc5)CC4)cc3)CC2)cc1 (centres undefined)
[1]
  % Cell Death: 65
[2]
  % Cell Death: 21
[3]
  % Cell Death: -7
[4]
  % Cell Death: 50
[5]
  % Cell Death: -5
[6]
  % Cell Death: 115

## CCOC(=O)c1cnc2ccc(Cl)cc2c1NCCCN(C)C
[1]
  % Cell Death: 3
[2]
  % Cell Death: -14
[3]
  % Cell Death: -22
[4]
  % Cell Death: 26
[5]
  % Cell Death: 17
[6]
  % Cell Death: -6

## CCn1nc(-c2ccc(C(=O)OC)cc2)nc2c(=O)n(C)c(=O)nc1-2
[1]
  % Cell Death: 6
[2]
  % Cell Death: -23
[3]
  % Cell Death: 18
[4]
  % Cell Death: 21
[5]
  % Cell Death: 1
[6]
  % Cell Death: -2

## COc1ccc2sc(N(Cc3cccnc3)C(=O)c3ccc(C#N)cc3)nc2c1
[1]
  % Cell Death: 2
[2]
  % Cell Death: -25
[3]
  % Cell Death: -31
[4]
  % Cell Death: 29
[5]
  % Cell Death: -25
[6]
  % Cell Death: 2

## COc1cccc(Nc2nc(NCCO)c3ccccc3n2)c1.Cl
[1]
  % Cell Death: 44
[2]
  % Cell Death: -16
[3]
  % Cell Death: 46
[4]
  % Cell Death: -1
[5]
  % Cell Death: 15
[6]
  % Cell Death: 3

## Oc1ccccc1CN1CCC2(CCCN(Cc3ccccc3F)C2)C1 (centres undefined)
[1]
  % Cell Death: 36
[2]
  % Cell Death: 1
[3]
  % Cell Death: 39
[4]
  % Cell Death: 15
[5]
  % Cell Death: -2
[6]
  % Cell Death: 44

## CCOc1ccc(C2N(C)c3ccccc3N2C)cc1
[1]
  % Cell Death: 105
[2]
  % Cell Death: 98
[3]
  % Cell Death: 100
[4]
  % Cell Death: 79
[5]
  % Cell Death: 92
[6]
  % Cell Death: 115

## Cc1ccc(Cn2c(N3CCC(C(=O)NCc4cccs4)CC3)nc3ccccc32)cc1
[1]
  % Cell Death: 12
[2]
  % Cell Death: 58
[3]
  % Cell Death: 78
[4]
  % Cell Death: 4
[5]
  % Cell Death: 5
[6]
  % Cell Death: 18

## CCCCC(O)(c1ccc(Cl)cc1)C(CN1CCOCC1)c1ccc(Cl)cc1.Cl (centres undefined)
[1]
  % Cell Death: -10
[2]
  % Cell Death: -16
[3]
  % Cell Death: 41
[4]
  % Cell Death: 36
[5]
  % Cell Death: -6
[6]
  % Cell Death: 17

## COc1ccccc1N1C(=N)SC(=Cc2ccc(OCc3ccccc3F)cc2)C1=O
[1]
  % Cell Death: 23
[2]
  % Cell Death: 7
[3]
  % Cell Death: 24
[4]
  % Cell Death: 24
[5]
  % Cell Death: 17
[6]
  % Cell Death: 30

## COc1cccc(C=Cc2nc(=O)c3ccccc3o2)c1OC
[1]
  % Cell Death: 17
[2]
  % Cell Death: -19
[3]
  % Cell Death: 31
[4]
  % Cell Death: 54
[5]
  % Cell Death: 70
[6]
  % Cell Death: 51

## CN(C)CCCNCc1ccc(-c2ccc(F)c(Cl)c2)o1.Cl
[1]
  % Cell Death: 16
[2]
  % Cell Death: -17
[3]
  % Cell Death: -24
[4]
  % Cell Death: 27
[5]
  % Cell Death: 20
[6]
  % Cell Death: 8

## CNCCCNc1ccnc2cc(Cl)ccc12
[1]
  % Cell Death: 97
[2]
  % Cell Death: 98
[3]
  % Cell Death: 100
[4]
  % Cell Death: 100
[5]
  % Cell Death: 108
[6]
  % Cell Death: 124

## O=C(CCc1ccccc1)c1ccccc1OCC(O)CN1CCCCC1 (centres undefined)
[1]
  % Cell Death: 12
[2]
  % Cell Death: 77
[3]
  % Cell Death: 93
[4]
  % Cell Death: 44
[5]
  % Cell Death: 53
[6]
  % Cell Death: 136

## Oc1c2c(nc3cc(-c4ccccc4)nn13)CCCC2
[1]
  % Cell Death: 26
[2]
  % Cell Death: -10
[3]
  % Cell Death: -22
[4]
  % Cell Death: 6
[5]
  % Cell Death: 37
[6]
  % Cell Death: 1

## O=C(Nc1ccc(F)c(Cl)c1)Nc1ccc(Cl)c(Cl)c1
[1]
  % Cell Death: -6
[2]
  % Cell Death: -9
[3]
  % Cell Death: -12
[4]
  % Cell Death: 4
[5]
  % Cell Death: -19
[6]
  % Cell Death: 22

## Cc1cc(Nc2ccc(OCc3ccccc3)cc2)nc2cc(O)ccc12
[1]
  % Cell Death: 18
[2]
  % Cell Death: 6
[3]
  % Cell Death: -7
[4]
  % Cell Death: -46
[5]
  % Cell Death: 23
[6]
  % Cell Death: -10

## CCCCN(CCCC)S(=O)(=O)c1ccc(NC(=O)c2ccco2)cc1
[1]
  % Cell Death: 36
[2]
  % Cell Death: 41
[3]
  % Cell Death: 39
[4]
  % Cell Death: 45
[5]
  % Cell Death: 58
[6]
  % Cell Death: 74

## Oc1c(C(Nc2ccccn2)c2cccc(Oc3ccccc3)c2)ccc2cccnc12 (centres undefined)
[1]
  % Cell Death: 91
[2]
  % Cell Death: 97
[3]
  % Cell Death: 106
[4]
  % Cell Death: 101
[5]
  % Cell Death: 113
[6]
  % Cell Death: 139

## COc1ccc(Br)cc1C1Nc2ccc3ccccc3c2C2=C1C(=O)CC(c1ccccc1)C2 (centres undefined)
[1]
  % Cell Death: 30
[2]
  % Cell Death: -14
[3]
  % Cell Death: -37
[4]
  % Cell Death: 28
[5]
  % Cell Death: 17
[6]
  % Cell Death: 16

## COc1ccc(C2C(C(=O)Nc3cccc(OC)c3)c3ccccc3C(=O)N2C2CCCCC2)cc1 (centres undefined)
[1]
  % Cell Death: 18
[2]
  % Cell Death: 22
[3]
  % Cell Death: 37
[4]
  % Cell Death: 15
[5]
  % Cell Death: -65
[6]
  % Cell Death: -8
